US6998237B1, “GD3 peptide mimics” (Health Research, Inc., priority 2002, dated 2006)
Bridge positions count the residues as written; N and C are the ends. Ends that are not written are not given here.

Tests used:
[1] = system: mAb MG21; test: Inhibition of binding of anti-GD3 mAb MG21 to GD3+ Melur melanoma cells by peptide mimic; details: cyclized peptide; FIG. 2a, 2b
Excerpt: (§1) FIGS. 2a, 2b and 2c are representations of inhibition of binding of anti-GD3 monoclonal antibody to GD3+ cells by peptide mimics of the present invention. Data is shown for pMG21-15-1 (FIG. 2a), pMG21-8-4 (FIG. 2b) and pMG22-8-1 (FIG. 2c) for inhibition of binding of mAb MG22 (-∘-); mAb MG21 (-●-) and mAb 763.74 (-Δ-).
(§2) For further characterization, the pVIII gene inserts of positive phage clones identified by reverse ELISA were sequenced. Peptides encoded by these sequences were synthesized and then tested for GD3 specificity. This was done by assessing the peptides' ability to compete with MG21 or MG22 for binding to GD3-bearing melanoma cell line in vitro.
(§3) Cyclized pMG21-15-1, pMG21-8-4 and pMG22-8-1 were tested for inhibiting the binding of the anti-GD2 mAb to Melur melanoma cells.

[2] = Induction of anti-peptide and anti-carrier antibodies in immunized mice; assay type: in vivo
Excerpt: FIGS. 4a, 4b, 4c are representations of induction of the anti-peptide and anti-carrier reponses. Mice were immunized on day 0, 14, 28 and 42. Sera was collected on day 10, 24 and 38. Results are shown for mice immunized with p763.74 (FIG. 4a), pMG22-8-1 (FIG. 4b) and KLH (FIG. 4c). Preimmune sera is indicated as -∘-; reaction against the immunized peptide is indicated as -●-; and reaction against peptide not used for immunization is indicated as -Δ-.
Mice were immunized with pMG22-8-1, p763.74 peptides or KLH. Sera was tested on day 10, 24 and 38. […] In the group immunized with pMG22-8-1, the titer of antibodies reacting against the GD3 peptide mimic is observed.

[3] = system: GD3 positive (Melur) cells; test: Reactivity of sera from immunized mice to GD3 positive (Melur) versus GD3 negative (LG2) cells by ELISA; assay type: in vivo; details: following two immunizations, Melur vs LG2 cells, sera day 24 and 38
Procedure: FIGS. 5a and 5b are representations of the selective reactivity of sera from mice immunized with GD3 peptide mimic pMG22-8-1. Immunizations were carried out on […], day 14, day 28 and day 42. Serum samples were collected on day 24 and day 38 and tested for binding to GD3 positive or negative cells. Results are shown for a peptide mimic according to the present invention (pMG22-8-1; FIG. 5b) and control peptide (p763.74; FIG. 5a).
Mice were immunized with peptide pMG22-8-1 (SEQ ID NO:6) on days 0, 14, 28 and 42. Sera was collected on days 24 and 38. The sera was tested for reactivity to GD3 positive (Melur) cells compared with GD3 negative cells (LG2) by ELISA.

[4] = system: mAb MG22; test: Inhibition of binding of anti-GD3 mAb MG22 to GD3+ Melur melanoma cells by peptide mimic
Excerpt: as §1
FIG. 3 is a representation of the effect of dithiothrietol (DTT) on inhibition of MG22 binding to GD2/3+Melur cells by […]. […] This inhibitory effect was abolished by the pre-incubation of pMG22-8-1 with 10 mM DTT (—SH), confirming that the inhibitory peptide was in its cyclized form (-S-S-). 763.74, a monoclonal antibody that recognizes another melanoma-associated antigen—the High Molecular Weight-Melanoma Associated Antigen (HMW-MAA), is used here as an irrelevant antibody to show the binding specificity of GD2/3 peptide mimic pMG22-8-1 for mAb MG22; and p763.74 is a HMW-MAA peptide mimic isolated using the mAb 763.74. It is used here as an irrelevant peptide mimic to show the binding specificity of the GD3-specific mAb MG22 for pMG22-8-1.
as §2, §3
The effect of 10 mM DTT on the inhibition of binding of anti-GD3 mAb to GD3+ cells was investigated.

[5] = target: anti-GD3 monoclonal antibody MG22; test: inhibition of mAb MG22 binding to GD2/3+ Melur melanoma cells by cyclized peptide, at 500 µM peptide

RCPPEYVAADCD (disulfide 2-11 (inferred)) [pMG21-8-4, GD3 peptide mimic isolated using MG21 from LX-8 phage library]
inhibition of binding of panning mAb MG21 to Melur melanoma cells [1]: inhibited in a specific and dose-dependent manner

QPFPCYSNAPCQSPS (not fully specified (bridges); cysteine pairing not given here) [pMG21-15-1, GD3 peptide mimic isolated using MG21 from X15 phage library]
inhibition of binding of panning mAb MG21 to Melur melanoma cells [1]: inhibited in a specific and dose-dependent manner

MCPTDMPASLCM (disulfide 2-11 (inferred)) [pMG22-8-1, GD3 peptide mimic isolated using MG22 from LX-8 phage library]
titer of non-specific antibodies reacting to p763.74 (peptide not used for immunization) ([2]; group immunized with pMG22-8-1, FIG. 4b): increase | titer of serum antibodies reacting to the immunogen ([2]; mice immunized day 0, 14, 28, 42, sera day 10, 24, 38): high titer | mice whose serum reacted selectively to GD3 positive cell line [3]: one out of eight mice | inhibition of mAb MG22 binding to GD3+ cells after pre-incubation of the peptide with DTT ([4]; 10 mM DTT (reduced, non-cyclized peptide)): abolished | inhibition of binding of MG22 to Melur cells ([4]; at 500 μM peptide, GD2/3+ Melur cells, dose-dependent): up to 72% | inhibition of binding of panning mAb MG22 to Melur melanoma cells ([4]; cyclized peptide, FIG. 2c): inhibited in a specific and dose-dependent manner

MCPTDMPASLCM (disulfide 2-11 (inferred)) [pMG22-8-1]
% inhibition of MG22 binding to Melur cells [5]: 72%
